Experimental data: patent US11066414B2, “Cot modulators and methods of use thereof” (Gilead Sciences, Inc., priority 2015, dated 2021)
Where two headings read alike, the source gives them in different places.

How the values were obtained:
[1] = test system: TNFα; assay: Cot Monocyte TNFα Cell Based Assay
[2] = molecular target: Human Cot (Homo sapiens (Human), UniProt P41279); assay: High Throughput Cot Biochemical Assay; settings: Cot HTRF (TR-FRET) biochemical assay
[3] = Homo sapiens, Monocyte, read-out: EC50 TNF, LPS-stimulated human monocytes, TNFα

Human Cot, sequence (P41279 30-397): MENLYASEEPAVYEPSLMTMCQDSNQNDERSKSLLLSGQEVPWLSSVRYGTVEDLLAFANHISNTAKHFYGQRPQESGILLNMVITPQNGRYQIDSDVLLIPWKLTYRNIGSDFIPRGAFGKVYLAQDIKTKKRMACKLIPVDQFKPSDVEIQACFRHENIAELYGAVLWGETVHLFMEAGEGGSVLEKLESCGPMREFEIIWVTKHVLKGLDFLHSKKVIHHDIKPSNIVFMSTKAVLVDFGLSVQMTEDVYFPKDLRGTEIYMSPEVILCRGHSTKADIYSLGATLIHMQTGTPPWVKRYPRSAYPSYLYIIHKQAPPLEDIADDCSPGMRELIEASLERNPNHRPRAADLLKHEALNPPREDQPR

Compound	EC50 [1, 3]	IC50 ([2]; IC50 HTRF)	EC50 ([1]; read-out: EC50 TNF, LPS-stimulated human monocytes, TNFα)	IC50 ([2]; read-out: IC50 HTRF)
CC(C)(C)CNc1c(C#N)cnc2c(Cl)cc(N[C@H](c3cn(C4(C(F)F)CC4)nn3)c3cccc4c(=O)n(CC(F)F)ccc34)cc12 [Example 743, (S)-8-chloro-6-(((2-(2,2-difluoroethyl)-1-oxo-1,2-dihydroisoquinolin-5-yl)(1-(1-(difluoromethyl)cyclopropyl)-1H-1,2,3-triazol-4-yl)methyl)amino)-4-(neopentylamino)quinoline-3-carbonitrile]	116 nM	5 nM	–	–
Cn1ccc2c([C@H](Nc3cc(Cl)c4ncc(C#N)c(NCC(C)(C)C)c4c3)c3cn(C4(C(F)F)CC4)nn3)cccc2c1=O [Example 744, (S)-8-chloro-6-(((1-(1-(difluoromethyl)cyclopropyl)-1H-1,2,3-triazol-4-yl)(2-methyl-1-oxo-1,2-dihydroisoquinolin-5-yl)methyl)amino)-4-(neopentylamino)quinoline-3-carbonitrile]	33 nM	3 nM	–	–
Cn1ccc2c([C@H](Nc3cc(Cl)c4ncc(C#N)c(NCC(C)(C)C)c4c3)c3cn(C4CC4)nn3)cccc2c1=O [Example 745, (S)-8-chloro-6-(((1-cyclopropyl-1H-1,2,3-triazol-4-yl)(2-methyl-1-oxo-1,2-dihydroisoquinolin-5-yl)methyl)amino)-4-(neopentylamino)quinoline-3-carbonitrile]	28 nM	2 nM	–	–
Cn1ccc2c([C@H](Nc3cc(Cl)c4ncc(C#N)c(NCC(C)(C)C)c4c3)c3cn(C(C)(C)C)nn3)cccc2c1=O [Example 747, (S)-6-(((1-(tert-butyl)-1H-1,2,3-triazol-4-yl)(2-methyl-1-oxo-1,2-dihydroisoquinolin-5-yl)methyl)amino)-8-chloro-4-(neopentylamino)quinoline-3-carbonitrile]	36 nM	4 nM	–	–
CCC1(n2cc([C@@H](Nc3cc(Cl)c4ncc(C#N)c(NCC(C)(C)C)c4c3)c3cccc4c(=O)n(C)ccc34)nn2)CC1 [Example 756, (S)-8-chloro-6-(((1-(1-ethylcyclopropyl)-1H-1,2,3-triazol-4-yl)(2-methyl-1-oxo-1,2-dihydroisoquinolin-5-yl)methyl)amino)-4-(neopentylamino)quinoline-3-carbonitrile]	26 nM	3 nM	–	–
Cn1ccc2c([C@H](Nc3cc(Cl)c4ncc(C#N)c(NCC(C)(C)C)c4c3)c3cn(C4(C)COC4)nn3)cccc2c1=O [Example 760, (S)-8-chloro-6-(((2-methyl-1-oxo-1,2-dihydroisoquinolin-5-yl)(1-(3-methyloxetan-3-yl)-1H-1,2,3-triazol-4-yl)methyl)amino)-4-(neopentylamino)quinoline-3-carbonitrile]	58 nM	2 nM	–	–
CC(C)(C)CNc1c(C#N)cnc2c(Cl)cc(N[C@H](c3cn(C4(C(F)F)CC4)nn3)c3cccc4c(=O)[nH]ccc34)cc12 [Example 765, (S)-8-chloro-6-(((1-(1-(difluoromethyl)cyclopropyl)-1H-1,2,3-triazol-4-yl)(1-oxo-1,2-dihydroisoquinolin-5-yl)methyl)amino)-4-(neopentylamino)quinoline-3-carbonitrile]	131 nM	4 nM	–	–

Continued, values first:

EC50 [1, 3]	IC50 ([2]; IC50 HTRF)	EC50 ([1]; read-out: EC50 TNF, LPS-stimulated human monocytes, TNFα)	IC50 ([2]; read-out: IC50 HTRF)	Compound
–	–	194 nM	11 nM	CCC(F)(F)Cn1cc([C@@H](Nc2cc(Cl)c3ncc(C#N)c(NCC(C)(C)C)c3c2)c2ccc(F)nc2C)nn1 [Example 750, (S)-8-chloro-6-(((1-(2,2-ifluorobutyl)-1H-1,2,3-triazol-4-yl)(6-fluoro-2-methylpyridin-3-yl)methyl)amino)-4-(neopentylamino)quinoline-3-carbonitrile]
57 nM	5 nM	–	–	Cc1nc(F)ccc1[C@H](Nc1cc(Cl)c2ncc(C#N)c(NCC(C)(C)C)c2c1)c1cn(CC2(C(F)F)CC2)nn1 [Example 752, (S)-8-chloro-6-(((1-((1-(difluoromethyl)cyclopropyl)-methyl)-1H-1,2,3-triazol-4-yl)(6-fluoro-2-methylpyridin-3-yl)methyl)amino)-4-(neopentylamino)quinoline-3-carbonitrile]
31 nM	3 nM	–	–	CCC1(n2cc([C@@H](Nc3cc(Cl)c4ncc(C#N)c(NCC(C)(C)C)c4c3)c3ccc(F)nc3C)nn2)CC1 [Example 754, (S)-8-chloro-6-(((1-(1-ethylcyclopropyl)-1H-1,2,3-triazol-4-yl)(6-fluoro-2-methylpyridin-3-yl)methyl)amino)-4-(neopentylamino)quinoline-3-carbonitrile]
60 nM	5 nM	–	–	Cc1nc(F)ccc1[C@H](Nc1cc(Cl)c2ncc(C#N)c(NCC(C)(C)C)c2c1)c1cn(C2(C(C)C)CC2)nn1 [Example 757, (S)-8-chloro-6-(((6-fluoro-2-methylpyridin-3-yl)(1-(1-isopropylcyclopropyl)-1H-1,2,3-triazol-4-yl)methyl)amino)-4-(neopentylamino)quinoline-3-carbonitrile]
50 nM	4 nM	–	–	Cc1nc(F)ccc1[C@H](Nc1cc(Cl)c2ncc(C#N)c(NCC(C)(C)C)c2c1)c1cn(C(C)(C)C2CC2)nn1 [Example 758, (S)-8-chloro-6-(((1-(2-cyclopropylpropan-2-yl)-1H-1,2,3-triazol-4-yl)(6-fluoro-2-methylpyridin-3-yl)methyl)amino)-4-(neopentylamino)quinoline-3-carbonitrile]
42 nM	2 nM	–	–	Cc1nc(F)ccc1[C@H](Nc1cc(Cl)c2ncc(C#N)c(NCC(C)(C)C)c2c1)c1cn(C2(C)COC2)nn1 [Example 759, (S)-8-chloro-6-(((6-fluoro-2-methylpyridin-3-yl)(1-(3-methyloxetan-3-yl)-1H-1,2,3-triazol-4-yl)methyl)amino)-4-(neopentylamino)quinoline-3-carbonitrile]
50 nM	3 nM	–	–	Cc1nc(F)ccc1[C@H](Nc1cc(Cl)c2ncc(C#N)c(NCC(C)(C)C)c2c1)c1cn(C(CF)CF)nn1 [Example 762, (S)-8-chloro-6-(((1-(1,3-difluoropropan-2-yl)-1H-1,2,3-triazol-4-yl)(6-fluoro-2-methylpyridin-3-yl)methyl)amino)-4-(neopentylamino)quinoline-3-carbonitrile]
40 nM	3 nM	–	–	Cc1nc(F)ccc1[C@H](Nc1cc(Cl)c2ncc(C#N)c(NCC(C)(C)C(F)(F)F)c2c1)c1cn(C2(C3CC3)CC2)nn1 [Example 763, (S)-6-(((1-([1,1′-bi(cyclopropan)]-1-yl)-1H-1,2,3-triazol-4-yl)(6-fluoro-2-methylpyridin-3-yl)methyl)amino)-8-chloro-4-((3,3,3-trifluoro-2,2-dimethylpropyl)amino)-quinoline-3-carbonitrile]
46 nM	4 nM	–	–	Cc1nc(F)ccc1[C@H](Nc1cc(Cl)c2ncc(C#N)c(NCC(C)(C)C)c2c1)c1cn(CC2(C)CC2)nn1 [Example 764, (S)-8-chloro-6-(((6-fluoro-2-methylpyridin-3-yl)(1-((1-methylcyclopropyl)-methyl)-1H-1,2,3-triazol-4-yl)methyl)amino)-4-(neopentylamino)quinoline-3-carbonitrile]
30 nM	2 nM	–	–	Cc1nc(F)ccc1[C@H](Nc1cc(Cl)c2ncc(C#N)c(NCC(C)(C)C)c2c1)c1cn(C2CC23CC3)nn1 (stereo partly drawn) [Example 766, 8-chloro-6-(((1S)-(6-fluoro-2-methylpyridin-3-yl)(1-(spiro[2.2]pentan-1-yl)-1H-1,2,3-triazol-4-yl)methyl)amino)-4-(neopentylamino)quinoline-3-carbonitrile]
